Source: ChEMBL document CHEMBL1156099, “Pyrazolo[1,5-a]pyrimidine-based inhibitors of HCV polymerase” (Bioorg Med Chem Lett, 2009)
The source made the active and inactive calls. The rule behind the calls is not given here.

Tested on: not listed separately
Assay: Inhibition of HCV recombinant NS5B Cdelta21 RdRp expressed in Escherichia coli assessed as [3H]GTP incorporation after 3 hrs by scintillation proximity assay-based RNA polymerase assay
Parameters: species or system Hepacivirus hominis
Conditions: not given

Question: For `NC(=O)c1cnn2c(C3CCCCC3)c(-c3ccc(OCc4ccccc4)cc3)cnc12`, which IC50 is on record?
Answer: Not Active

Question: With `O=S1(=O)CCC(c2c(-c3ccc(OCc4ccccc4)cc3)cnc3c(-c4nnn[nH]4)cnn23)CC1` as the molecule, how does the IC50 read?
Answer: Not Active

Question: Which IC50 does the source give for `c1ccc(COc2ccc(-c3cnc4c(-c5nnn[nH]5)cnn4c3C3CC3)cc2)cc1` here?
Answer: Not Active

Question: With `c1ccc(COc2ccc(-c3cnc4c(-c5nnn[nH]5)cnn4c3-c3ccccc3)cc2)cc1` as the molecule, how does the IC50 read?
Answer: Not Active

Same assay, conditions: read-out: IC50

Question: For `COC(=O)c1cccc(COc2ccc(-c3cnc4c(-c5nnn[nH]5)cnn4c3C3CCCCC3)cc2)c1`, which IC50 is on record?
Answer: 220 nM

Question: With `Fc1ccc(-c2cnc3c(-c4nnn[nH]4)cnn3c2C2CCCCC2)cc1F` as the molecule, how does the IC50 read?
Answer: 700 nM

Question: Which IC50 does the source give for `COc1cccc(COc2ccc(-c3cnc4c(-c5nnn[nH]5)cnn4c3C3CCCCC3)cc2)c1` here?
Answer: 600 nM

Question: With `O=C(NO)c1cnn2c(C3CCCCC3)c(-c3ccc(OCc4ccccc4)cc3)cnc12` as the molecule, how does the IC50 read?
Answer: 1900 nM

Question: Which IC50 does the source give for `O=C(N[C@H](Cc1ccc(O)cc1)C(=O)O)c1cnn2c(C3CCCCC3)c(-c3ccc(F)cc3)cnc12` here?
Answer: 960 nM

Question: For `O=C(O)c1cc2nc(-c3ccc(Cl)cc3)cc(-c3ccc(Oc4ccccc4)cc3)n2n1`, which IC50 is on record?
Answer: 6000 nM

Question: With `Cc1c(-c2ccc(OCc3ccccc3)cc2)cnc2c(-c3nnn[nH]3)cnn12` as the molecule, how does the IC50 read?
Answer: 12500 nM

Question: With `c1ccc(COc2ccc(-c3cnc4c(-c5nnn[nH]5)cnn4c3C3CCSCC3)cc2)cc1` as the molecule, how does the IC50 read?
Answer: 3400 nM

Question: Which IC50 does the source give for `c1cc(COc2ccc(-c3cnc4c(-c5nnn[nH]5)cnn4c3C3CCCCC3)cc2)ccn1` here?
Answer: 710 nM

Question: With `CC(C)CCc1c(-c2ccc(OCc3ccccc3)cc2)cnc2c(-c3nnn[nH]3)cnn12` as the molecule, how does the IC50 read?
Answer: 4600 nM

Question: For `OCc1cnn2c(C3CCCCC3)c(-c3ccc(OCc4ccccc4)cc3)cnc12`, which IC50 is on record?
Answer: 12500 nM

Question: Which IC50 does the source give for `c1cc(-c2cnc3c(-c4nnn[nH]4)cnn3c2C2CCCCC2)ccc1OC1CCCCC1` here?
Answer: 400 nM

Question: With `NCCCC[C@H](NC(=O)c1cnn2c(C3CCCCC3)c(-c3ccc(F)cc3)cnc12)C(=O)O` as the molecule, how does the IC50 read?
Answer: 480 nM

Question: For `O=C(N[C@@H](Cc1ccccc1)C(=O)O)c1cnn2c(C3CCCCC3)c(-c3ccc(F)cc3)cnc12`, which IC50 is on record?
Answer: 2000 nM

Question: Which IC50 does the source give for `NC(=O)[C@H](Cc1c[nH]c2ccccc12)NC(=O)c1cnn2c(C3CCCCC3)c(-c3ccc(OCc4ccccc4)cc3)cnc12` here?
Answer: 90 nM

Question: Which IC50 does the source give for `O=C(N[C@H](Cc1c[nH]c2ccccc12)C(=O)O)c1cnn2c(C3CCCCC3)c(-c3ccc(F)cc3)cnc12` here?
Answer: 450 nM

Question: For `O=C(O)c1cnn2c(C3CCCCC3)c(-c3ccc(OCc4ccccc4)cc3)cnc12`, which IC50 is on record?
Answer: 590 nM

Question: For `c1ccc(COc2ccc(-c3cnc4c(-c5ncn[nH]5)cnn4c3C3CCCCC3)cc2)cc1`, which IC50 is on record?
Answer: 5700 nM

Question: Which IC50 does the source give for `O=C(N[C@@H](Cc1ccc(O)cc1)C(=O)O)c1cnn2c(C3CCCCC3)c(-c3ccc(F)cc3)cnc12` here?
Answer: 20 nM

Question: Which IC50 does the source give for `O=C(N[C@@H](Cc1c[nH]c2ccc(O)cc12)C(=O)O)c1cnn2c(C3CCCCC3)c(-c3ccc(F)cc3)cnc12` here?
Answer: 11 nM

Question: With `CS(=O)(=O)NC(=O)c1cnn2c(C3CCCCC3)c(-c3ccc(OCc4ccccc4)cc3)cnc12` as the molecule, how does the IC50 read?
Answer: 1600 nM

Question: Which IC50 does the source give for `Cn1nnnc1-c1cnn2c(C3CCCCC3)c(-c3ccc(OCc4ccccc4)cc3)cnc12` here?
Answer: 50000 nM

Question: Which IC50 does the source give for `CS(=O)(=O)c1cccc(-c2ccc(-c3cnc4c(-c5nnn[nH]5)cnn4c3C3CCCCC3)cc2)c1` here?
Answer: 930 nM

Question: Which IC50 does the source give for `O=C(N[C@@H](Cc1c[nH]c2ccccc12)C(=O)O)c1cnn2c(C3CCCCC3)c(-c3ccc(F)cc3)cnc12` here?
Answer: 20 nM

Question: Which IC50 does the source give for `CC(C)c1c(-c2ccc(OCc3ccccc3)cc2)cnc2c(-c3nnn[nH]3)cnn12` here?
Answer: 8600 nM

Question: For `O=C(O)c1ccc(COc2ccc(-c3cnc4c(-c5nnn[nH]5)cnn4c3C3CCCCC3)cc2)cc1`, which IC50 is on record?
Answer: 42 nM

Question: With `c1ccc(Oc2ccc(-c3cnc4c(-c5nnn[nH]5)cnn4c3C3CCCCC3)cc2)cc1` as the molecule, how does the IC50 read?
Answer: 400 nM

Question: For `O=C(NS(=O)(=O)c1ccccc1)c1cnn2c(C3CCCCC3)c(-c3ccc(OCc4ccccc4)cc3)cnc12`, which IC50 is on record?
Answer: 760 nM

Question: With `CC(C)C[C@H](NC(=O)c1cnn2c(C3CCCCC3)c(-c3ccc(F)cc3)cnc12)C(=O)O` as the molecule, how does the IC50 read?
Answer: 290 nM

Question: For `CC(C)Cc1c(-c2ccc(OCc3ccccc3)cc2)cnc2c(-c3nnn[nH]3)cnn12`, which IC50 is on record?
Answer: 6000 nM

Question: For `c1ccc(COc2ccc(-c3cnc4c(-c5nnn[nH]5)cnn4c3C3CCOCC3)cc2)cc1`, which IC50 is on record?
Answer: 12000 nM

Question: For `O=C(O)c1ccc2c(c1)nc(-c1ccoc1)n2C1CCCCC1`, which IC50 is on record?
Answer: 1600 nM

Question: With `COC(=O)c1ccc(COc2ccc(-c3cnc4c(-c5nnn[nH]5)cnn4c3C3CCCCC3)cc2)cc1` as the molecule, how does the IC50 read?
Answer: 190 nM

Question: Which IC50 does the source give for `O=C(O)c1ccc2c(c1)nc(-c1ccc(OCc3ccccc3)cc1)n2C1CCCCC1` here?
Answer: 530 nM

Question: Which IC50 does the source give for `CS(=O)(=O)c1cccc(Oc2ccc(-c3cnc4c(-c5nnn[nH]5)cnn4c3C3CCCCC3)cc2)c1` here?
Answer: 200 nM

Question: With `FC(F)(F)c1cccc(COc2ccc(-c3cnc4c(-c5nnn[nH]5)cnn4c3C3CCCCC3)cc2)c1` as the molecule, how does the IC50 read?
Answer: 400 nM

Question: With `NC(=O)[C@H](Cc1ccc(O)cc1)NC(=O)c1cnn2c(C3CCCCC3)c(-c3ccc(F)cc3)cnc12` as the molecule, how does the IC50 read?
Answer: 24 nM

Question: Which IC50 does the source give for `c1ccc(-c2ccc(-c3cnc4c(-c5nnn[nH]5)cnn4c3C3CCCCC3)cc2)cc1` here?
Answer: 2800 nM

Question: Which IC50 does the source give for `O=C(O)c1cnn2c(C3CCCCC3)c(-c3ccc(F)cc3)cnc12` here?
Answer: 930 nM

Question: With `c1ccc(COc2ccc(-c3cnc4c(-c5nnn[nH]5)cnn4c3C3CCCCC3)cc2)cc1` as the molecule, how does the IC50 read?
Answer: 450 nM

Question: Which IC50 does the source give for `COc1cccc(Oc2ccc(-c3cnc4c(-c5nnn[nH]5)cnn4c3C3CCCCC3)cc2)c1` here?
Answer: 400 nM

Question: Which IC50 does the source give for `O=C(Nc1nnn[nH]1)c1cnn2c(C3CCCCC3)c(-c3ccc(OCc4ccccc4)cc3)cnc12` here?
Answer: 670 nM

Tested on: Hepatitis C virus
Assay: Antiviral activity against HCV infected in human hepatoma cells by RNA replicon assay
Assay type: functional, organism-based
Conditions: Hepacivirus hominis

Question: With `O=C(O)c1cnn2c(C3CCCCC3)c(-c3ccc(OCc4ccccc4)cc3)cnc12` as the molecule, how does the Activity read?
Answer: Active

Question: Which Activity does the source give for `O=C(O)c1cnn2c(C3CCCCC3)c(-c3ccc(F)cc3)cnc12` here?
Answer: Active

Question: With `c1ccc(COc2ccc(-c3cnc4c(-c5nnn[nH]5)cnn4c3C3CCCCC3)cc2)cc1` as the molecule, how does the Activity read?
Answer: Active
